Measured values: publication PMC8405660, “Detection of Borrelia burgdorferi antigens in tissues and plasma during early infection in a mouse model” (Scientific Reports, 2021)
Where no end group is shown, it is not given here.

Molecular target: C10-11 mAb
Experiment: Competitive ELISA with AChE-labeled C10 peptide on C10-11 mAb
Set-up: species or system mouse
Conditions: read-out: Apparent dissociation constant (Kapp) of C10-11 mAb; concentration of competitor inducing 50% inhibition of binding of AChE-labeled C10 peptide (0.5 EU/mL); mAb 1 ng/mL, overnight at 4 °C; NB means no binding
Experimental: The apparent affinity of anti-C10 peptide mAbs for different variants of C10 peptides and recombinant OspC was measured by competitive ELISA, using goat anti-mouse antibodies (Jackson ImmunoResearch, Cambridgeshire, United Kingdom) coated on the wells of a microtiter plate. A mix of anti-C10 peptide mAb (1 ng/mL), AChE-labeled C10 peptide (0.5 EU/mL) and different concentrations of competitor peptide or recombinant OspC were reacted overnight in the wells at 4 °C.

| Sequence | Kd |
| --- | --- |
| PVVAESQKKP [compound 7] | 170 nM |
| PVVAEAPKKP [compound 2] | 146 nM |
| PVVAESPKKP [compound 1, reference compound] | 33 nM |
| PIVAESPKKP [compound 10] | 100 nM |
| PVMAESPKKP [compound 9] | 125 nM |
| PVVAETPKKP [compound 5] | 179 nM |
| PVVAESPKKT [compound 3] | 60 nM |
